Like-named read-outs stand apart in the source and are kept apart here.
Experiments:
Type in all cases: cell-based
[1] = tested on: Vesicular Stomatitis Virus (VSV)
[2] = tested on: Serratia marcescens
[3] = tested on: red blood cells
Experimental: In another assay, the rabbit polyclonal sera may be reacted with treated red blood cells. After washing off unbound antibody, a FITC labeled goat anti-rabbit Fab′2 fragment (anti H+L chains, Caltag) is added. The binding of FITC label to the red blood cells correlates with the amount of acridine bound to the red blood cell surface, and is assessed by FACScan™ analysis (Becton, Dickinson and Co., NJ). The relative modification of the red blood cells is determined from the FACScan™ mean fluorescence value.
A 20 mL sample of leukoreduced whole blood (Blood Source, Sacramento, Calif.) was centrifuged at 4,100×g for 5 minutes at room temperature in each of four 50 mL centrifuge tubes. The supernatant was removed from each tube to provide red cell concentrate (RCC). […] For each washed RCC, cells were resuspended in 5 mL of the solution used for washing. This is now referred to as the RBC test sample. […] These samples were incubated for 20 hours at room temperature. After incubation, the RBC were washed in BBS (Blood Bank Saline, 0.9% saline, unbuffered, Fisher Scientific) and were diluted to a final hematocrit of 4%. A 25 μL aliquot of each was mixed with 15 μL of rabbit polyclonal anti-acridine sera diluted 1:100 in BBS and the mixture was incubated at 37° C. for 30 minutes. The cells were subsequently washed with 1.5 mL BBS. After washing was complete, the cells were mixed with 50 μL of FITC labeled goat anti-rabbit Fab′2 fragment (1:64 dilution in BBS) and incubated at 37° C. for 30 minutes. […] Note that the quenching improves as glutathione is neutralized with increasing amounts of sodium hydroxide.
The FACScan analysis of the binding of rabbit anti-acridine sera to treated red cells was used to assess a variety of quenching conditions. […] The tables represent data from two different experiments, each with samples treated under standard conditions or with 20 mM neutralized glutathione. […] The data within an experiment provides the relative efficacy of the various treatments. Because the assay may depend on the lot of red blood cells used, the absolute values of mean fluorescence may vary from one study to the next, such that relative values should only be compared within a given experiment. […] Neutralized glutathione at 20 mM results in close to background levels.
An untreated control sample as well as a standard sample (co-addition of 2 mM acidic glutathione with 0.2 mM PIC-1) were also assessed.
Full units of red cell concentrates (Interstate Blood Bank, Inc., Memphis, Tenn.) were leukoreduced. A volume of 200 mL of this RCC (80% hematocrit) was mixed with 94 mL of Erythrosol or 100 mL of Adsol (Baxter Healthcare Corp., Deerfield, Ill.) as control (unit 1). A volume of 20 mL 8% dextrose was used to dissolve PIC-1 (mg) and acid glutathione (mg) and added to one unit to provide 0.2 mM PIC-1 and 2 mM glutathione (unit 2). […] For the glutathione, 1.2 mL of 10 N NaOH was added (2 equivalents). The PIC-1 was mixed with the unit, followed 1 minute later (unit 3) or 5 minutes later (unit 4) by glutathione. For unit 5, neutralized glutathione was mixed first, followed 10 minutes later by the PIC-1. […] All units were mixed by grasping the ends of the blood bag and mixing in a FIG. 8 motion 30 times. These were then incubated at room temperature for 20 hours total. A compound adsorption device (CAD), comprising a polymeric resin contained within a mesh pouch, was used for all but the control sample. This device is intended to remove residual PIC-1, PIC-1 breakdown products, and glutathione from the samples. Samples were incubated for 8 hours, then transferred to a second blood bag containing the CAD and incubated for an additional 12 hours. Following the room temperature incubation, samples were transferred to a refrigerator (4° C.) and stored up to 43 days.

[4] = 0.2 mM PIC-1+2 mM glutathione, 0.9 eq base, formulated together
[5] = 0.2 mM PIC-1+20 mM glutathione, 0 eq base, formulated together
[6] = 0.2 mM PIC-1+20 mM glutathione, 0.9 eq base, formulated together (PIC-1 precipitated)
[7] = 0.2 mM PIC-1+20 mM glutathione, 1.5 eq base, formulated together (PIC-1 precipitated)
[8] = 0.2 mM PIC-1+20 mM glutathione, 2 eq base, formulated together (PIC-1 precipitated)
[9] = 0.2 mM PIC-1 first, 20 mM glutathione+2 eq base shortly after (sequential)
[10] = Table 2B: 0.2 mM PIC-1, then 20 mM glutathione+2 eq base after 1 min
[11] = Table 2B: 0.2 mM PIC-1, then 20 mM glutathione+2 eq base after 5 min
[12] = Table 2B: 0.2 mM PIC-1, then 20 mM glutathione+2 eq base after 10 min
[13] = Table 2B: 0.2 mM PIC-1, then 20 mM glutathione+2 eq base after 20 min
[14] = Table 2B: 0.2 mM PIC-1 and 2 mM glutathione, 0 eq base, simultaneous
[15] = Table 2B: 0.2 mM PIC-1 and 20 mM glutathione, 0 eq base, simultaneous
[16] = Table 2B: 20 mM glutathione+2 eq base, then 0.2 mM PIC-1 after 1 min
[17] = Table 2B: 20 mM glutathione+2 eq base, then 0.2 mM PIC-1 after 10 min
[18] = Table 5A: 0.2 mM PIC-1, then 20 mM GSH+2 eq base after 1 min
[19] = Table 5A: 10 mM Cys+10 mM GSH, 2 eq base each, then 0.2 mM PIC-1 after 10 min
[20] = Table 5A: 15 mM Cys+5 mM GSH, 2 eq base each, then 0.2 mM PIC-1 after 10 min
[21] = Table 5A: 20 mM Cys+2 eq base, then 0.2 mM PIC-1 after 10 min
[22] = Table 5A: 20 mM GSH+2 eq base, then 0.2 mM PIC-1 after 10 min
[23] = Table 5B: 0.2 mM PIC-1+2 mM GSH, 0 eq base, no delay
[24] = Table 5B: 5 mM Cys+2 eq base, then 0.2 mM PIC-1 after 5 min
[25] = Table 5B: 5 mM Cys+2 eq base, then 0.2 mM PIC-1 after 10 min
[26] = Table 5B: 5 mM Cys+2 eq base, then 0.2 mM PIC-1 after 20 min
[27] = Table 5B: 10 mM Cys+2 eq base, then 0.2 mM PIC-1 after 10 min
[28] = Table 5B: 15 mM Cys+2 eq base, then 0.2 mM PIC-1 after 10 min
[29] = Table 5B: 20 mM Cys+2 eq base, then 0.2 mM PIC-1 after 5 min
[30] = Table 5B: 20 mM Cys+2 eq base, then 0.2 mM PIC-1 after 10 min
[31] = Table 5B: 20 mM GSH+2 eq base, then 0.2 mM PIC-1 after 10 min
[32] = Table 5B: […] Cys+2 eq base, then 0.2 mM PIC-1 after 10 min

O=C(CCNc1c2ccccc2nc2ccccc12)OCCN(CCCl)CCCl [PIC-1] was tested, and the “inactivation of a high titer of VSV” value [1] was “essentially complete inactivation”, the “Log S. marcescens reduction” value [2, 4] was 4.27 Log and the “Log S. marcescens titer” value [2, 4] was 2.8 Log. The “Log S. marcescens reduction” value [2, 5] was 2.40 Log, the “Log S. marcescens titer” value [2, 5] was 4.6 Log and the “Log S. marcescens reduction” value [2, 6] was 2.26 Log. For the same compound, the “Log S. marcescens titer” value [2, 6] was 4.8 Log, the “Log S. marcescens reduction” value [2, 7] was 1.66 Log and the “Log S. marcescens titer” value [2, 7] was 5.4 Log. The “Log S. marcescens reduction” value [2, 8] was 0.76 Log, the “Log S. marcescens titer” value [2, 8] was 6.3 Log and the “Log S. marcescens reduction” value [2, 9] was 3.02 Log. The “Log S. marcescens titer” value [2, 9] was 4.0 Log, the “Log S. marcescens reduction” value [2, 10] was 3.36 Log and the “Log S. marcescens titer” value [2, 10] was 3.40 Log. The “Log S. marcescens reduction” value [2, 11] was 3.89 Log, the “Log S. marcescens titer” value [2, 11] was 2.87 Log and the “Log S. marcescens reduction” value [2, 12] was 4.96 Log. The “Log S. marcescens titer” value [2, 12] was 1.80 Log, the “Log S. marcescens reduction” value [2, 13] was 6.76 Log and the “Log S. marcescens titer” value [2, 13] was 0.00 Log. For the same compound, the “Log S. marcescens reduction” value [2, 14] was 5.25 Log, the “Log S. marcescens titer” value [2, 14] was 1.51 Log and the “Log S. marcescens reduction” value [2, 15] was 0.71 Log. The “Log S. marcescens titer” value [2, 15] was 6.05 Log, the “Log S. marcescens reduction” value [2, 16] was 3.66 Log and the “Log S. marcescens titer” value [2, 16] was 3.10 Log. The “Log S. marcescens reduction” value [2, 17] was 3.68 Log, the “Log S. marcescens titer” value [2, 17] was 3.08 Log and the “Log S. marcescens reduction” value [2, 18] was 2.7 Log. For the same compound, the “Log S. marcescens titer” value [2, 18] was 4.8 Log, the “Log S. marcescens reduction” value [2, 19] was 3.0 Log and the “Log S. marcescens titer” value [2, 19] was 4.5 Log. For the same compound, the “Log S. marcescens reduction” value [2, 20] was 3.7 Log, the “Log S. marcescens titer” value [2, 20] was 3.8 Log and the “Log S. marcescens reduction” value [2, 21] was 3.1 Log. The “Log S. marcescens titer” value [2, 21] was 4.4 Log, the “Log S. marcescens reduction” value [2, 22] was 3.4 Log and the “Log S. marcescens titer” value [2, 22] was 4.1 Log. The “Log S. marcescens reduction” value [2, 23] was 4.1 Log, the “Log S. marcescens titer” value [2, 23] was 3.5 Log and the “Log S. marcescens reduction” value [2, 24] was 3.2 Log. The “Log S. marcescens titer” value [2, 24] was 4.4 Log, the “Log S. marcescens reduction” value [2, 25] was 3.2 Log and the “Log S. marcescens titer” value [2, 25] was 4.4 Log. The “Log S. marcescens reduction” value [2, 26] was 2.9 Log, the “Log S. marcescens titer” value [2, 26] was 4.7 Log and the “Log S. marcescens reduction” value [2, 27] was 2.7 Log. For the same compound, the “Log S. marcescens titer” value [2, 27] was 4.9 Log, the “Log S. marcescens reduction” value [2, 28] was 3.1 Log and the “Log S. marcescens titer” value [2, 28] was 4.5 Log. For the same compound, the “Log S. marcescens reduction” value [2, 29] was 3.2 Log, the “Log S. marcescens titer” value [2, 29] was 4.4 Log and the “Log S. marcescens reduction” value [2, 30] was 3.0 Log. For the same compound, the “Log S. marcescens titer” value [2, 30] was 4.6 Log, the “Log S. marcescens reduction” value [2, 31] was 3.2 Log and the “Log S. marcescens titer” value [2, 31] was 4.4 Log. For the same compound, the “Log S. marcescens reduction” value [2, 32] was 3.7 Log, the “Log S. marcescens titer” value [2, 32] was 3.9 Log and the log inactivation ([2]; all conditions of Tables 5A, 5B, 5C (cysteine and/or glutathione, 0.2 mM PIC-1)) was “at least 3 log”. The “inactivation difference from the standard condition” value ([2]; cysteine or glutathione quenching, Tables 5A-5C) was 1-1.5 log, the mean fluorescence ([3]; 16C day 0.8, unit 2: standard 0.2 mM PIC-1+2 mM GSH) was 284 and the mean fluorescence ([3]; 16C day 0.8, unit 3: 0.2 mM PIC-1, 1' delay, 20 mM GSH+2 eq base) was 20.1. The mean fluorescence ([3]; 16C day 0.8, unit 4: 0.2 mM PIC-1, 5' delay, 20 mM GSH+2 eq base) was 46.0, the mean fluorescence ([3]; 16C day 0.8, unit 5: 20 mM GSH+2 eq base, 10' delay, 0.2 mM PIC-1) was 20.0 and the mean fluorescence ([3]; 16C day 2, unit 2: standard 0.2 mM PIC-1+2 mM GSH) was 193.5. For the same compound, the mean fluorescence ([3]; 16C day 2, unit 3: 0.2 mM PIC-1, 1' delay, 20 mM GSH+2 eq base) was 14.58, the mean fluorescence ([3]; 16C day 2, unit 4: 0.2 mM PIC-1, 5' delay, 20 mM GSH+2 eq base) was 34.07 and the mean fluorescence ([3]; 16C day 2, unit 5: 20 mM GSH+2 eq base, 10' delay, 0.2 mM PIC-1) was 12.31. It also gave a mean fluorescence ([3]; 16C day 7, unit 2: standard 0.2 mM PIC-1+2 mM GSH) of 142.1, a mean fluorescence ([3]; 16C day 7, unit 3: 0.2 mM PIC-1, 1' delay, 20 mM GSH+2 eq base) of 4.96 and a mean fluorescence ([3]; 16C day 7, unit 4: 0.2 mM PIC-1, 5' delay, 20 mM GSH+2 eq base) of 18.84. The mean fluorescence ([3]; 16C day 7, unit 5: 20 mM GSH+2 eq base, 10' delay, 0.2 mM PIC-1) was 5.34.

Source: patent publication US7655392B2, “Quenching methods for red blood cell inactivation process” (priority 2004, dated 2010)
